Results taken from PubChem BioAssay (NCI).
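A five-concentration, 48-hour dose response in 96-well plates underlies each endpoint, interpolated linearly between surrounding concentrations. TGI is the concentration that stops growth completely.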

test system: OVCAR-5 ovarian; assay: growth of human tumour cells (NCI), 48 h

Structure (SMILES)	TGI [µM]
CC(C)=C[C@H]1CCC2(OCCO2)[C@]1(C)CO	> 100
O=C(/C=C/c1ccc2ccccc2c1)NCc1ccc(C(=O)NCCc2ccccc2)cc1	> 100
CCOC(=O)CC(C)C1(C(=O)OCC)CCCCC1=O (stereo unspecified)	> 100
Nc1nc(-[n+]2ccc(-c3ccncc3)cc2)nc(Cl)c1Cl	> 100
CC(C)OC(=O)/C=C/C(=O)O/C=C/[N+](=O)[O-]	> 100
CC(=O)O[C@H]1C(=O)[C@@]2(C)C(C(OC(=O)c3ccccc3)[C@]3(O)CC(OC(=O)C(O)C(NC(=O)c4ccc(C(F)(F)F)cc4)c4ccccc4)C(C)=C1C3(C)C)[C@]1(OC(C)=O)CO[C@@H]1C[C@@H]2O (stereo partly specified)	3.95
COC(=O)CC1N=C(NC#N)N(CCc2c[nH]c3ccccc23)C1=O (stereo unspecified)	> 100
COC1=C(OC)C(=O)C(Cc2c(C)nc3sccn23)=C(C)C1=O	34.6
CCOc1ncn(-c2ccc(NC(=S)NC3OC(CO)C(O)C(O)C3O)cc2)n1 (stereo unspecified)	> 100
Cn1c(O)c(C(=O)NC2CCCCC2)c(=O)n(C)c1=S	38.9
CC(C)=C[C@H]1CCC2(OCCO2)[C@]1(C)COCc1ccccc1	82.1
CC1(C)C[C@@H]2C1CCC1(C)CC2(O)CC[C@H]1O (stereo partly specified)	> 100
c1ccc(CNc2nncc3[nH]cnc23)cc1	> 100
Nc1nc([O-])c2c(n1)[n+](C1OC(CO)C(O)C1O)cn2CCO (stereo unspecified)	> 100
CC(CC[C@@]1(C)C(=O)CCC2O[C@]21C)[C@H]1C[C@@H](c2ccoc2)OC1=O (stereo partly specified)	> 100
O=Cc1ccccc1COC(=O)c1cc(C(=O)OCc2ccccc2C=O)c(C(=O)OCc2ccccc2C=O)cc1C(=O)OCc1ccccc1C=O	> 100
CCOC1=NC(O)c2cccn2-c2sccc21 (stereo unspecified)	> 100
O=C1NC(=S)NC(=O)C1C(c1ccc(O)cc1)C1C(=O)NC(=S)NC1=O	> 100
N#C/C(=C/NC(N)=S)C(N)=O	> 100
CN(C)CC1CCCC(CN(C)C)C1OC(=O)c1ccccc1 (stereo unspecified)	> 100
Cc1cc(N(CCC#N)CCC#N)ccc1/C=C(\NC(=O)/C=C/c1ccccc1)C(N)=O	> 100
CN=C(SC)N(C)c1nc(=[N+](C)C)ss1	> 100
CCN(CC)CCSc1c2cc(OC)ccc2nc2ccc(OC)cc12	44.5
CCOC(=O)c1ccc(NCc2ccc3oc(=O)c(-c4ccccc4)nc3c2)cc1	> 100
CC(C)=CCC(O)[C@](C)(O)[C@H]1[C@H](O)C[C@@]2(C)[C@@H]3CCc4cc(O)c(OC5OC(CO)C(O)C(O)C5O)cc4C3(C)C(=O)C[C@]12C (stereo partly specified)	> 100
C[Si](C)(C)OC1CC(=O)OC1n1cc(F)c(=O)[nH]c1=O (stereo unspecified)	> 100

test system: MDA-MB-231 breast; assay: growth of human tumour cells (NCI), 48 h

Structure (SMILES)	TGI [µM]
CC(C)=C[C@H]1CCC2(OCCO2)[C@]1(C)CO	> 100
O=C(/C=C/c1ccc2ccccc2c1)NCc1ccc(C(=O)NCCc2ccccc2)cc1	> 100
Nc1nc(-[n+]2ccc(-c3ccncc3)cc2)nc(Cl)c1Cl	95.9
CC(C)OC(=O)/C=C/C(=O)O/C=C/[N+](=O)[O-]	> 100
COC1=C(OC)C(=O)C(Cc2c(C)nc3sccn23)=C(C)C1=O	32.9
CCOc1ncn(-c2ccc(NC(=S)NC3OC(CO)C(O)C(O)C3O)cc2)n1 (stereo unspecified)	> 100
CC(C)=C[C@H]1CCC2(OCCO2)[C@]1(C)COCc1ccccc1	53.7
c1ccc(CNc2nncc3[nH]cnc23)cc1	> 100
CCOC1=NC(O)c2cccn2-c2sccc21 (stereo unspecified)	> 100
O=C1NC(=S)NC(=O)C1C(c1ccc(O)cc1)C1C(=O)NC(=S)NC1=O	> 100
N#C/C(=C/NC(N)=S)C(N)=O	> 100
CCN(CC)CCSc1c2cc(OC)ccc2nc2ccc(OC)cc12	19.9
CCOC(=O)c1ccc(NCc2ccc3oc(=O)c(-c4ccccc4)nc3c2)cc1	> 100
CC(C)=CCC(O)[C@](C)(O)[C@H]1[C@H](O)C[C@@]2(C)[C@@H]3CCc4cc(O)c(OC5OC(CO)C(O)C(O)C5O)cc4C3(C)C(=O)C[C@]12C (stereo partly specified)	> 100

test system: OVCAR-4 ovarian; assay: growth of human tumour cells (NCI), 48 h

Structure (SMILES)	TGI [µM]
O=c1cc(-c2ccc(Oc3ccccc3)cc2)[nH]c2cc3c(cc12)OCO3	> 100
CC(C)=C[C@H]1CCC2(OCCO2)[C@]1(C)CO	> 100
O=C(/C=C/c1ccc2ccccc2c1)NCc1ccc(C(=O)NCCc2ccccc2)cc1	> 100
CCOC(=O)CC(C)C1(C(=O)OCC)CCCCC1=O (stereo unspecified)	> 100
Nc1nc(-[n+]2ccc(-c3ccncc3)cc2)nc(Cl)c1Cl	> 100
CC(C)OC(=O)/C=C/C(=O)O/C=C/[N+](=O)[O-]	> 100
CC(=O)O[C@H]1C(=O)[C@@]2(C)C(C(OC(=O)c3ccccc3)[C@]3(O)CC(OC(=O)C(O)C(NC(=O)c4ccc(C(F)(F)F)cc4)c4ccccc4)C(C)=C1C3(C)C)[C@]1(OC(C)=O)CO[C@@H]1C[C@@H]2O (stereo partly specified)	> 37.5
COC(=O)CC1N=C(NC#N)N(CCc2c[nH]c3ccccc23)C1=O (stereo unspecified)	> 100
COC1=C(OC)C(=O)C(Cc2c(C)nc3sccn23)=C(C)C1=O	18.1
CCOc1ncn(-c2ccc(NC(=S)NC3OC(CO)C(O)C(O)C3O)cc2)n1 (stereo unspecified)	> 100
Cn1c(O)c(C(=O)NC2CCCCC2)c(=O)n(C)c1=S	42.7
CC(C)=C[C@H]1CCC2(OCCO2)[C@]1(C)COCc1ccccc1	> 100
CC1(C)C[C@@H]2C1CCC1(C)CC2(O)CC[C@H]1O (stereo partly specified)	> 100
c1ccc(CNc2nncc3[nH]cnc23)cc1	> 100
Nc1nc([O-])c2c(n1)[n+](C1OC(CO)C(O)C1O)cn2CCO (stereo unspecified)	> 100
CC(CC[C@@]1(C)C(=O)CCC2O[C@]21C)[C@H]1C[C@@H](c2ccoc2)OC1=O (stereo partly specified)	55.3
O=Cc1ccccc1COC(=O)c1cc(C(=O)OCc2ccccc2C=O)c(C(=O)OCc2ccccc2C=O)cc1C(=O)OCc1ccccc1C=O	> 100
CCOC1=NC(O)c2cccn2-c2sccc21 (stereo unspecified)	> 100
O=C1NC(=S)NC(=O)C1C(c1ccc(O)cc1)C1C(=O)NC(=S)NC1=O	> 100
N#C/C(=C/NC(N)=S)C(N)=O	> 100
CN(C)CC1CCCC(CN(C)C)C1OC(=O)c1ccccc1 (stereo unspecified)	> 100
CCN(CC)CCSc1c2cc(OC)ccc2nc2ccc(OC)cc12	16.9
CCOC(=O)c1ccc(NCc2ccc3oc(=O)c(-c4ccccc4)nc3c2)cc1	54.1
CC(C)=CCC(O)[C@](C)(O)[C@H]1[C@H](O)C[C@@]2(C)[C@@H]3CCc4cc(O)c(OC5OC(CO)C(O)C(O)C5O)cc4C3(C)C(=O)C[C@]12C (stereo partly specified)	> 100
C[Si](C)(C)OC1CC(=O)OC1n1cc(F)c(=O)[nH]c1=O (stereo unspecified)	> 100

test system: HL-60(TB) leukemia; assay: growth of human tumour cells (NCI), 48 h

Structure (SMILES)	TGI [µM]
O=c1cc(-c2ccc(Oc3ccccc3)cc2)[nH]c2cc3c(cc12)OCO3	> 100
O=C(/C=C/c1ccc2ccccc2c1)NCc1ccc(C(=O)NCCc2ccccc2)cc1	> 100
CCOC(=O)CC(C)C1(C(=O)OCC)CCCCC1=O (stereo unspecified)	> 100
Nc1nc(-[n+]2ccc(-c3ccncc3)cc2)nc(Cl)c1Cl	38.9
CC(=O)O[C@H]1C(=O)[C@@]2(C)C(C(OC(=O)c3ccccc3)[C@]3(O)CC(OC(=O)C(O)C(NC(=O)c4ccc(C(F)(F)F)cc4)c4ccccc4)C(C)=C1C3(C)C)[C@]1(OC(C)=O)CO[C@@H]1C[C@@H]2O (stereo partly specified)	> 37.5
COC(=O)CC1N=C(NC#N)N(CCc2c[nH]c3ccccc23)C1=O (stereo unspecified)	> 100
CCOc1ncn(-c2ccc(NC(=S)NC3OC(CO)C(O)C(O)C3O)cc2)n1 (stereo unspecified)	> 100
CC1(C)C[C@@H]2C1CCC1(C)CC2(O)CC[C@H]1O (stereo partly specified)	> 100
c1ccc(CNc2nncc3[nH]cnc23)cc1	> 100
Nc1nc([O-])c2c(n1)[n+](C1OC(CO)C(O)C1O)cn2CCO (stereo unspecified)	> 100
CC(CC[C@@]1(C)C(=O)CCC2O[C@]21C)[C@H]1C[C@@H](c2ccoc2)OC1=O (stereo partly specified)	47.6
O=Cc1ccccc1COC(=O)c1cc(C(=O)OCc2ccccc2C=O)c(C(=O)OCc2ccccc2C=O)cc1C(=O)OCc1ccccc1C=O	> 100
O=C1NC(=S)NC(=O)C1C(c1ccc(O)cc1)C1C(=O)NC(=S)NC1=O	> 100
N#C/C(=C/NC(N)=S)C(N)=O	> 100
CN(C)CC1CCCC(CN(C)C)C1OC(=O)c1ccccc1 (stereo unspecified)	> 100
Cc1cc(N(CCC#N)CCC#N)ccc1/C=C(\NC(=O)/C=C/c1ccccc1)C(N)=O	> 100
CN=C(SC)N(C)c1nc(=[N+](C)C)ss1	> 100
CCN(CC)CCSc1c2cc(OC)ccc2nc2ccc(OC)cc12	> 100
CCOC(=O)c1ccc(NCc2ccc3oc(=O)c(-c4ccccc4)nc3c2)cc1	13.2
C[Si](C)(C)OC1CC(=O)OC1n1cc(F)c(=O)[nH]c1=O (stereo unspecified)	> 100

test system: KM12 colon; assay: growth of human tumour cells (NCI), 48 h

Structure (SMILES)	TGI [µM]
CC(C)=C[C@H]1CCC2(OCCO2)[C@]1(C)CO	> 100
O=C(/C=C/c1ccc2ccccc2c1)NCc1ccc(C(=O)NCCc2ccccc2)cc1	> 100
CCOC(=O)CC(C)C1(C(=O)OCC)CCCCC1=O (stereo unspecified)	> 100
Nc1nc(-[n+]2ccc(-c3ccncc3)cc2)nc(Cl)c1Cl	> 100
CC(C)OC(=O)/C=C/C(=O)O/C=C/[N+](=O)[O-]	70.6
CC(=O)O[C@H]1C(=O)[C@@]2(C)C(C(OC(=O)c3ccccc3)[C@]3(O)CC(OC(=O)C(O)C(NC(=O)c4ccc(C(F)(F)F)cc4)c4ccccc4)C(C)=C1C3(C)C)[C@]1(OC(C)=O)CO[C@@H]1C[C@@H]2O (stereo partly specified)	0.202
COC(=O)CC1N=C(NC#N)N(CCc2c[nH]c3ccccc23)C1=O (stereo unspecified)	> 100
COC1=C(OC)C(=O)C(Cc2c(C)nc3sccn23)=C(C)C1=O	33.9
CCOc1ncn(-c2ccc(NC(=S)NC3OC(CO)C(O)C(O)C3O)cc2)n1 (stereo unspecified)	> 100
Cn1c(O)c(C(=O)NC2CCCCC2)c(=O)n(C)c1=S	27.7
CC(C)=C[C@H]1CCC2(OCCO2)[C@]1(C)COCc1ccccc1	> 100
CC1(C)C[C@@H]2C1CCC1(C)CC2(O)CC[C@H]1O (stereo partly specified)	> 100
c1ccc(CNc2nncc3[nH]cnc23)cc1	> 100
Nc1nc([O-])c2c(n1)[n+](C1OC(CO)C(O)C1O)cn2CCO (stereo unspecified)	> 100
CC(CC[C@@]1(C)C(=O)CCC2O[C@]21C)[C@H]1C[C@@H](c2ccoc2)OC1=O (stereo partly specified)	> 100
O=Cc1ccccc1COC(=O)c1cc(C(=O)OCc2ccccc2C=O)c(C(=O)OCc2ccccc2C=O)cc1C(=O)OCc1ccccc1C=O	> 100
CCOC1=NC(O)c2cccn2-c2sccc21 (stereo unspecified)	> 100
O=C1NC(=S)NC(=O)C1C(c1ccc(O)cc1)C1C(=O)NC(=S)NC1=O	> 100
N#C/C(=C/NC(N)=S)C(N)=O	> 100
CN(C)CC1CCCC(CN(C)C)C1OC(=O)c1ccccc1 (stereo unspecified)	> 100
Cc1cc(N(CCC#N)CCC#N)ccc1/C=C(\NC(=O)/C=C/c1ccccc1)C(N)=O	> 100
CN=C(SC)N(C)c1nc(=[N+](C)C)ss1	> 100
CCN(CC)CCSc1c2cc(OC)ccc2nc2ccc(OC)cc12	> 71
CCOC(=O)c1ccc(NCc2ccc3oc(=O)c(-c4ccccc4)nc3c2)cc1	> 100
CC(C)=CCC(O)[C@](C)(O)[C@H]1[C@H](O)C[C@@]2(C)[C@@H]3CCc4cc(O)c(OC5OC(CO)C(O)C(O)C5O)cc4C3(C)C(=O)C[C@]12C (stereo partly specified)	> 100
C[Si](C)(C)OC1CC(=O)OC1n1cc(F)c(=O)[nH]c1=O (stereo unspecified)	> 100
